According to article PMC11443511, “Discovery of anti-infective compounds against Mycobacterium marinum after biotransformation of simple natural stilbenes by a fungal secretome” (Frontiers in Microbiology, 2024):
Entries after “also recorded” stand apart in the source; their conditions may differ. Where two headings read alike, the source gives them in different places.

How the values were obtained:
[1] = test system: Mycobacterium marinum in broth (Mm-broth); assay: Antibacterial assay, growth of Mm in broth (Mm-broth, luminescence); format: cell-based; conditions: screen at 20 μM or dose-response curve
Dd Ax2(ka) cells = assay: Anti-infective assay with high-content microscopy, area of uninfected and infected Dd; conditions: 20, 10, 2.5 μM, up to 48 h
Procedure: (§1) To monitor both the host and pathogen during the course of infection in a quantitative manner, Dd Ax2(ka) cells expressing mCherry knocked-in at the act5 locus ([Paschke et al., 2019]) were infected as described above with Mm WT stably expressing GFP (Msp:12-GFP). As described above, the day before the experiment, 10^7 amoebae were plated in a 10 cm Petri dish. On the day of the experiment, infection was performed, as described above, in HL5-C at MOI 25 by spinoculation. This was followed by eight washes in HL5-C to clear a maximum of non-internalized bacteria. The infected amoebae were detached mechanically and resuspended in HL5-C with 0.75 U/mL penicillin and 0.75 μg/mL of streptomycin (Gibco). Compounds were diluted in HL5-C to a 10x stock of the final assay concentration and pre-plated in 20 μL into the respective wells of a 96-well μ-plate (iBIDI 96-well μ-plate, 89,626). Subsequently, 7,500 cells per well were added in a volume of 180 μL. Every condition has been plated in at least three technical replicates and at least three biological replicates. The 96-well plate was sealed with a gas permeable seal (4titude, 4ti-0516/96) and centrifuged briefly.
(§2) Microscopy images were acquired at 25°C with a 40X plan Apo objective at selected time points over 48 h on the ImageXpress Micro C® automated microscope (Molecular Devices) in wide field mode. Focus was obtained automatically by autofocusing on the well bottom and plate bottom, at every well and every time point. In a grid of 4 × 5, 20 images per well, corresponding to a range of 500–6,000 cells, have been taken using the Texas-Red channel for Dd expressing mCherry and FITC channel for Mm expressing GFP in each experiment. Image analysis was performed using MetaXpress Custom Module editor software. Objects were effectively segmented by size and intensity. More precisely, amoebae were segmented using a “find blob module” using the Texas-Red channel. To segment the bacteria, the FITC image was first subjected to a light deconvolution with a top hat filter and then segmented using a “find blob module.” Intracellular bacteria and infected amoebae were determined by associating the mask of the amoebae and the bacteria. Several parameters such as intracellular and extracellular bacterial area sum, amoebae area sum, averaged and integrated fluorescence intensity and feature counts of bacteria and amoeba were extracted. The growth curves for the area sum of uninfected amoebae, infected amoebae and intracellular bacteria of independent biological replicates were averaged and plotted using GraphPad Prism (Version 8.0.1).
(§3) Both uninfected Dd and Dd infected with Mm were treated with 20, 10 or 2.5 μM of 17 or 19 and the infection was monitored by collecting microscopy images at five time points for up to 48 h.

Mm = assay: Checkerboard assay for synergy with antibiotics
Source text: We tested this compound for synergy with rifampicin and isoniazid in a checkerboard assay and additionally tested for synergy between rifampicin and isoniazid.

[2] = test system: Mycobacterium marinum (Mm) in infection of Dictyostelium discoideum (Mm-inf); assay: Anti-infective assay, growth of Mm during infection of Dd (Mm-inf, luminescence); format: cell-based
[3] = test system: Dictyostelium discoideum (Dd-inf); assay: microbe, parasite or virus in culture; format: cell-based; conditions: 20 μM; vehicle = 1, baseline = 0
intracellular Mm = assay: Anti-infective assay with high-content microscopy, area of intracellular Mm; conditions: 20, 10, 2.5 μM, up to 48 h
Procedure: as §1, §2, §3

## COc1cc(OC)cc(C2c3cc(C=Cc4cc(O)cc(O)c4)ccc3OC2c2ccc(O)cc2)c1 (stereo not shown) [compound 17]
[1]
  activity on Mm in broth (in words): no activity on Mm in broth; also recorded: without antibiotic activity; also recorded: did not show any growth inhibition
Dd Ax2(ka) cells
  growth of infected Dd (segmented area, in words): this effect was weaker
Mm
  synergy with rifampicin and isoniazid (in words): did not find striking synergy
[2]; 72 h, AUC of luminescence normalized to vehicle, 4PL regression; read-out: IC50 Mm-inf
  IC50: 18.1 µM
[2]; at 20 μM
  activity on Mm-inf (in words): passed again the 0.5 cut-off
[2]; dose-response curve
  activity on Mm-inf (in words): dose-dependent activity; also recorded: validated anti-infectives without antibiotic properties
[2]; read-out: IC50 Mm-inf; 72 h, AUC of luminescence normalized to vehicle, 4PL regression
  IC50: 18.9 µM
[2]; read-out: normalized residual growth of Mm-inf, 20 μM; vehicle = 1, baseline = 0; hit cut-off <0.5
  activity at 20 µM: 34%
[3]
  normalized residual growth of Dd-inf: 0.91
Intracellular Mm
  growth of intracellular Mm (segmented area, in words): this effect was weaker
